# Results from US10632127B2, “Targeted notch pathway inhibitors” (Hoffmann-La Roche Inc., priority 2015, dated 2020).
# Tested on: EC219 cells
# Assay: Extracellular release of the γ-secretase inhibitor from prodrugs by EC219 endothelial cells
# Format: in vitro ADME, rat
# Settings: HEK293, 215/F2, HK2 and EC219 cells, 20 μM in PBS, 19 h
# Procedure: FIG. 2A. Extracellular release of amine-SecrI (11a) metabolites for α-Glu- and γ-Glu-secretase inhibitor prodrugs. The prodrugs were added to the cells for 19 h, then the supernatants were harvested and analyzed for SecrI (8), amine-SecrI (11a), the prodrugs 13a, 13b, 15a, 15b and (for 13a, 15a) also the correponding deacetylated metabolites.
# Cpd added: 20 μM in PBS, 19 h incubation. SecrI (8) is stable when added to cells for 19 h; free SecrI (8) was never detected from any prodrug.
# The preparation and characterization of rat brain-derived EC219 endothelial cells have been described in Juillerat-Jeanneret, L. et al. In Vitro Cell. Dev. Biol. 1992, 28A, 537-543. These cells express high levels of APA and γ-GT activities and can be used for determining kinetics in living cells, and were chosen as APA- and γ-GT-positive representative cell models. EC219 cells were grown in DMEM medium containing 1 g/l glucose, 10% heat-inactivated fetal calf serum (FCS, EuroClone, UK) supplemented with 100 U/mL penicillin and 100 μg/mL streptomycin (P/S) on uncoated cell culture plastic ware. The HEK293 and HK2 human kidney cells are available from the ATCC (American Tissue Culture Collection, Manassas, Va., USA). HEK293 cells were grown on uncoated cell culture plastic ware in Iscove modified Dulbecco medium (IMDM, Life Technologies) containing 10% FCS and P/S. HK2 cells were grown on uncoated cell culture plastic ware in DMEM/F-12 GlutaMAX medium (Gibco) containing 5% FCS, P/S, 1% ITS (1.0 mg/ml bovine insulin, 0.55 mg/ml human transferrin and 0.5 μg/ml sodium selenite, Sigma-Aldrich) and 5 ng/ml hydrocortisone. […] Then 75 μl of supernatant from each well was removed and the luciferase activity was determined by adding 25 μl of Steady-Glo luciferase assay reagent (Promega).
# A first screen of the different γ-secretase prodrugs was performed in vitro to determine the cleavage rate of each compound and ex-vivo in mouse kidney tissues. Extracellular release of the γ-secretase inhibitor from prodrugs by human kidney cells (HEK293, HEK293-derived Notch-reporter 215/F2 cells28,39 and HK2 cells) as well as the rat brain-derived EC219 endothelial cells which express very high levels of APA and γ-GT activities were evaluated for liberating active inhibitors SecrI (8) or amine-SecrI (11a) (FIG. 2A).
# All samples were analyzed using protein precipitation followed by LC-MS/MS analysis. […] One μL of the supernatant was analyzed by LC/MS. […]
smiles,measurement,value
"C[C@H]1Oc2ccc(F)cc2N(CCO)C(=O)[C@H]1NC(=O)[C@@](C)(O)C(=O)NCC(F)(F)C(F)(F)F [Compound 8, N-[(6R,7S)-2-Fluoro-9-(2-hydroxy-ethyl)-6-methyl-8-oxo-6,7,8,9-tetrahydro-5-oxa-9-aza-benzocyclohepten-7-yl]-2-(S)-hydroxy-2-methyl-N′-(2,2,3,3,3-pentafluoro-propyl)-malonamide]",stability when added to cells,stable
"CC(=O)N[C@@H](CCC(=O)O)C(=O)NCCNC(=O)OCCN1C(=O)[C@@H](NC(=O)[C@@](C)(O)C(=O)NCC(F)(F)C(F)(F)F)[C@@H](C)Oc2ccc(F)cc21 [Compound 15a, (S)-4-acetamido-5-(2-((2-((2R,3S)-7-fluoro-3-((S)-2-hydroxy-2-methyl-3-oxo-3-(2,2,3,3,3-pentafluoropropylamino)propanamido)-2-methyl-4-oxo-3,4-dihydrobenzo[b][1,4]oxazepin-5(2H)-yl)ethoxy)carbonylamino)ethylamino)-5-oxopentanoic acid]",substrate for APA,not a substrate for this enzyme
"CC(=O)N[C@@H](CCC(=O)NCCNC(=O)OCCN1C(=O)[C@@H](NC(=O)[C@@](C)(O)C(=O)NCC(F)(F)C(F)(F)F)[C@@H](C)Oc2ccc(F)cc21)C(=O)O [Compound 13a, (S)-2-acetamido-5-(2-((2-((2R,3S)-7-fluoro-3-((S)-2-hydroxy-2-methyl-3-oxo-3-(2,2,3,3,3-pentafluoropropylamino)propanamido)-2-methyl-4-oxo-3,4-dihydrobenzo[b][1,4]oxazepin-5(2H)-yl)ethoxy)carbonylamino)ethylamino)-5-oxopentanoic acid]",hydrolysis by γ-GT,not hydrolyzed by γ-GT
